Experimental data from ChEMBL document CHEMBL1133199, “Synthesis and uptake of nitric oxide-releasing drugs by the P2 nucleoside transporter in Trypanosoma equiperdum” (Bioorg Med Chem Lett, 2000).
Each block holds one molecule with its values, some of them ahead of it.

Assays:
Adenosine transporter 1 = molecular target: T1, Adenosine transporter 1 (Trypanosoma brucei, UniProt Q9Y0I0); experiment: (§1) Compound was tested for inhibition of Adenosine transporter P2 type by using [2-3H]adenosine as radioligand in Trypanosoma equiperdum
T1 sequence (Q9Y0I0 whole entry): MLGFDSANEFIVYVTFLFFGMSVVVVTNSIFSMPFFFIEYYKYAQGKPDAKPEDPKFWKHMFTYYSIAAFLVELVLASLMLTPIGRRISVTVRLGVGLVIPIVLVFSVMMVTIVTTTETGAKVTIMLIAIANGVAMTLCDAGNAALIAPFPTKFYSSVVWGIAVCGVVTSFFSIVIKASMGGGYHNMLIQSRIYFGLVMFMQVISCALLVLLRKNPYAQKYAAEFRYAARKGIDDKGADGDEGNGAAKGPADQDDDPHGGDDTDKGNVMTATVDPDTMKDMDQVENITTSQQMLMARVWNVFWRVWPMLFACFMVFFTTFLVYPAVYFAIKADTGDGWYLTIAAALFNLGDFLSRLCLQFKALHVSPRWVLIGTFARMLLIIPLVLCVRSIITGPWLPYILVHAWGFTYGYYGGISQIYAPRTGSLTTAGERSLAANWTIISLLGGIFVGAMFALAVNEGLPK

[1] = compound: Nc1ncnc2c1ncn2[C@@H]1O[C@H](CO)[C@@H](O)[C@H]1O; experiment: as §1

Molecule: CC(=O)N[C@@H](C(=O)O)C(C)(C)SN=O
Ki (Adenosine transporter 1): > 1000 µM

Molecule: NCCS[As](SCCN)c1ccc(Nc2nc(N)nc(N)n2)cc1 [CYMELARSEN]
Ki (Adenosine transporter 1): 22.9 µM

Molecule: Nc1nc(N)c2c(no[n+]2[O-])n1
Ki (Adenosine transporter 1): 117 µM

Molecule: Nc1nc(N)nc(Nc2ccc(CCO[N+](=O)[O-])cc2)n1
Ki (Adenosine transporter 1): 0.2 µM

Molecule: CC(=O)NC(C(=O)Nc1ccc(Nc2nc(N)nc(N)n2)cc1)C(C)(C)SN=O (configuration not stated)
Ki (Adenosine transporter 1): 0.58 µM

Molecule: O=[N+]([O-])OCc1ccccc1
Ki (Adenosine transporter 1): > 1000 µM

Molecule: Nc1ncnc2c1ncn2CCO[N+](=O)[O-]
Ki (Adenosine transporter 1): 1.9 µM

B1: Adenosine transporter 1 (Trypanosoma brucei), Q9Y0I0 (protein)
chain: T1 sequence (Q9Y0I0 whole entry)
Km [1]: 0.7 µM

Second part, the molecule after the results:

Ki (Adenosine transporter 1): 0.62 µM
Molecule: CC(=O)NC(C(=O)NCCn1cnc2c(N)ncnc21)C(C)(C)SN=O (configuration not stated)

Ki (Adenosine transporter 1): 12.3 µM
Molecule: Nc1ncnc2c1ncn2[C@@H]1O[C@H](CO[N+](=O)[O-])[C@@H](O)[C@H]1O

Ki (Adenosine transporter 1): 404 µM
Molecule: CC(=O)NC(C(=O)Nc1ccc(N)nc1)C(C)(C)SN=O (configuration not stated)

Ki (Adenosine transporter 1): 3.47 µM
Molecule: CC(=O)NC(C(=O)NC[C@H]1OC(n2cnc3c(N)ncnc32)[C@H](O)[C@@H]1O)C(C)(C)SN=O (some centres not stated)
